For test [1], the system named is HPDE (immortalized pancreatic duct cell line). As to the kind of experiment: Drug combination viability screen (ATPlite, 72 h). The format is cell-based, human. As to conditions: combination with GEM. The method, then: (§1) Cell viability was assessed by measuring ATP levels to indicate metabolic activity.
(§2) Afterward, small amounts were transferred to 384-well intermediate plates (Greiner Bio-One GmbH, Germany). […] For drug combination screening, 1000 to 5000 cells were seeded into 384-well plates (CulturPlate™, Perkin Elmer, MA, USA) using a Multidrop™ Combi Reagent Dispenser (Thermo Scientific, MA, USA) in 50 µl medium per well 24 h prior to drug treatment (seeding densities see Appendix Table S1). […] The final DMSO concentration in each well was 0.2%. […] Eight wells per plate without library drug served as negative controls, and sixteen wells per plate containing 5 µM Staurosporine served as positive controls. Control plates not containing any drug were used to correct for incubation effects, and data quality was assessed by calculation of Z-prime of positive and negative controls according to1 Z-prime=1−3SDpos+3SDneg/[…] where SD is the standard deviation. […] Dose–response curves from the experimental and hypothetical data were compared, and shifts in AUC were used to describe combination effects (AUC∆ = AUChypothetical − AUCexperimental). […] Only combinations with R^2 > 0.8 in both conditions were considered in the synergy analysis.
On the technique in general: ATP-based viability assays read luminescence as a measure of living cells.

Another test relates to Dan-G cells. As to the kind of experiment: Drug combination viability screen (ATPlite, 72 h). In kind it is cell-based, human. To be noted: Bliss model. On the procedure:
as §1, §2

The subject of the next test is Capan-1 cells. As to the kind of experiment: Drug combination viability screen (ATPlite, 72 h). The format is cell-based, human. To be noted: Bliss model. The method, then:
as §1, §2

A further test deals with 13 PDAC cell lines. As to the kind of experiment: Phenotypic drug combination viability screen (ATPlite, 72 h), cell line panel. The format is cell-based, human. As to conditions: single agent, 72 h. The method, then:
as §1, §2

The subject of the next test is Colo-357 cells. As to the kind of experiment: Drug combination viability screen (ATPlite, 72 h). In kind it is cell-based, human. To be noted: Bliss model. The method, then: as §1, §2
Another test deals with HuP-T4. As to the kind of experiment: cells. More on the design: Viability of PDAC cell lines, ATPlite luminescence, 11-dose single-agent curve fit. To be noted: Homo sapiens, HuP-T4, 72 h, read-out: EC50 [nM]. The gist of the method: (§3)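 screening used cells plated at 1000 to 5000 per well one day before treatment. Final DMSO was 0.2%. Each plate held untreated negative-control wells and 5 µM staurosporine positive-control wells.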

The next test has as its system PaTu-8988-T. As to the kind of experiment: cells. Further details: Viability of PDAC cell lines, ATPlite luminescence, 11-dose single-agent curve fit. As to conditions: Homo sapiens, PaTu 8988t, 72 h, read-out: EC50 [nM]. The procedure, abridged: as §3
The next test has as its system PSN-1. As to the kind of experiment: cells. More on the design: Viability of PDAC cell lines, ATPlite luminescence, 11-dose single-agent curve fit. To be noted: Homo sapiens, PSN1, 72 h, read-out: EC50 [nM]. The procedure, abridged: as §3
The subject of a further test is HPDE. As to the kind of experiment: cells. Further details: Viability of PDAC cell lines, ATPlite luminescence, 11-dose single-agent curve fit. To be noted: HPDE, 72 h, read-out: EC50 [nM]. The gist of the method: as §3
The next test deals with PANC-1. As to the kind of experiment: cells. To be noted: Homo sapiens, PANC-1, 72 h, read-out: EC50 [nM]. Further details: Viability of PDAC cell lines, ATPlite luminescence, 11-dose single-agent curve fit. The gist of the method:
as §3

In another test the test system is BxPC-3. As to the kind of experiment: cells. More on the design: Viability of PDAC cell lines, ATPlite luminescence, 11-dose single-agent curve fit. As to conditions: Homo sapiens, BXPC-3, 72 h, read-out: EC50 [nM]. The procedure, abridged:
as §3

The test system of another test is Suit2-07. As to the kind of experiment: cells. Further details: Viability of PDAC cell lines, ATPlite luminescence, 11-dose single-agent curve fit. As to conditions: 72 h, read-out: EC50 [nM]. The procedure, abridged:
as §3

The next test has as its system Dan-G. As to the kind of experiment: cells. Further details: Viability of PDAC cell lines, ATPlite luminescence, 11-dose single-agent curve fit. To be noted: 72 h, read-out: EC50 [nM]. The gist of the method: as §3
The test system of the next test is Capan-1. As to the kind of experiment: cells. To be noted: Homo sapiens, CAPAN-1, 72 h, read-out: EC50 [nM]. More on the design: Viability of PDAC cell lines, ATPlite luminescence, 11-dose single-agent curve fit. The gist of the method: as §3
The test system of the next test is MiaPaCa-2. As to the kind of experiment: cells. Further details: Viability of PDAC cell lines, ATPlite luminescence, 11-dose single-agent curve fit. As to conditions: Homo sapiens, MIA PaCa-2, 72 h, read-out: EC50 [nM]. The gist of the method: as §3
A further test concerns FAMPAC. As to the kind of experiment: cells. Further details: Viability of PDAC cell lines, ATPlite luminescence, 11-dose single-agent curve fit. As to conditions: 72 h, read-out: EC50 [nM]. The gist of the method: as §3
In a further test the test system is AsPC-1. As to the kind of experiment: cells. Further details: Viability of PDAC cell lines, ATPlite luminescence, 11-dose single-agent curve fit. To be noted: Homo sapiens, ASPC1, 72 h, read-out: EC50 [nM]. The procedure, abridged: as §3
A further test has as its system Colo-357. As to the kind of experiment: cells. More on the design: Viability of PDAC cell lines, ATPlite luminescence, 11-dose single-agent curve fit. To be noted: Homo sapiens, COLO357, 72 h, read-out: EC50 [nM]. The procedure, abridged: as §3

For `CO[C@H]1C[C@@H]2CC[C@@H](C)[C@@](O)(O2)C(=O)C(=O)N2CCCC[C@H]2C(=O)O[C@H]([C@H](C)C[C@@H]2CC[C@@H](OCCO)[C@H](OC)C2)CC(=O)[C@H](C)/C=C(\C)[C@@H](O)[C@@H](OC)C(=O)[C@H](C)C[C@H](C)/C=C/C=C/C=C/1C` [Everolimus], the “sensitization of HPDE cells to GEM” value in test [1] is on record as “strongly sensitized”. The “synergy with GEM” value with Dan-G cells, with Capan-1 cells and in the test with Colo-357 cells was “synergized” throughout. For the same compound, in the test on 13 PDAC cell lines, the “median AUC across all cell lines” value is reported as over 80%.
As for `CO[C@H]1C[C@@H]2CC[C@@H](C)[C@@](O)(O2)C(=O)C(=O)N2CCCC[C@H]2C(=O)O[C@H]([C@H](C)C[C@@H]2CC[C@@H](OP(C)(C)=O)[C@H](OC)C2)CC(=O)[C@H](C)/C=C(\C)[C@@H](O)[C@@H](OC)C(=O)[C@H](C)C[C@H](C)/C=C/C=C/C=C/1C` [Ridaforolimus], the “sensitization of HPDE cells to GEM” value in [1] is given as “strongly sensitized”. Also, the “synergy with GEM” value with Dan-G cells, in the test on Capan-1 cells and in the test on Colo-357 cells was “synergized” in each case. Besides, the half-maximal effective concentration (EC50) was found to be 15.9 nM in the test on HuP-T4; 0.04 nM in the test on PaTu-8988-T; 0.26 nM with PSN-1; 0.56 nM in the test on HPDE; 4.17 nM in the test with PANC-1; 0.13 nM in the test on BxPC-3. Besides, the EC50 is 118 nM in the test on Suit2-07; 87.2 nM in the test with Dan-G; 31.4 nM in the test with Capan-1; 3.25 nM in the test on MiaPaCa-2; 0.13 nM with FAMPAC; 0.22 nM with AsPC-1. The EC50 with Colo-357 stood at 127 nM. In addition, the “median AUC across all cell lines” value in the test with 13 PDAC cell lines is reported as over 80%.
With `CO[C@H]1C[C@@H]2CC[C@@H](C)[C@@](O)(O2)C(=O)C(=O)N2CCCC[C@H]2C(=O)O[C@H]([C@H](C)C[C@@H]2CC[C@@H](O)[C@H](OC)C2)CC(=O)[C@H](C)/C=C(\C)[C@@H](O)[C@@H](OC)C(=O)[C@H](C)C[C@H](C)/C=C/C=C/C=C/1C` [Rapamycin], the “sensitization of HPDE cells to GEM” value in test [1] is reported as “strongly sensitized”. For the same compound, the “synergy with GEM” value in the test with Dan-G cells, with Capan-1 cells and in the test on Colo-357 cells was “synergized” in each case. For the same compound, the EC50 came out at 1.13 nM with HuP-T4; 0.05 nM with PaTu-8988-T; 0.05 nM in the test on PSN-1; 0.08 nM in the test with HPDE; 4.67 nM with PANC-1; 0.08 nM in the test on BxPC-3. Besides, the EC50 with Suit2-07 amounted to 7.19 nM; with Dan-G, 0.09 nM; with Capan-1 it was 0.11 nM; in the test with MiaPaCa-2 it was 1.11 nM; with FAMPAC it was 1.59 nM; with AsPC-1, 50.8 nM. The EC50 with Colo-357 was determined as 276 nM. Moreover, the “median AUC across all cell lines” value in the test on 13 PDAC cell lines is listed as over 80%.

The term EC50 denotes the concentration at which the effect is half-maximal.

The record behind these values is publication PMC11876601 (Molecular Systems Biology, 2025).
